Assay results from the supplement of paper PMC10307832.

Assays:
Experiment in all cases: relative viability (nuclei count vs DMSO), 5 days (fraction); higher = more cells survive
[1] = compound: CC1=CC(=NN1)NC2=CC(=NC(=N2)/C=C/C3=CC=CC=C3)N4CCN(CC4)C + C[C@@H](Oc1cc(-c2cnn(C3CCNCC3)c2)cnc1N)c1c(Cl)ccc(F)c1Cl [Crizotinib] (partner 1 µM)
Procedure, shortened: (§1)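 Lung cancer cell lines, seeded in 1536-well plates, were treated the following day by pin tool with a single drug or with five library-drug doses (not always all listed) in √10 steps on top of a fixed anchor-drug dose. Cells were fixed and nuclei stained in one step after 5 days, and nuclei were counted. Relative viability is the nuclei count for treated wells divided by that for vehicle wells, reported as medians of duplicate plates.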

[2] = compound: CC1=CC(=NN1)NC2=CC(=NC(=N2)/C=C/C3=CC=CC=C3)N4CCN(CC4)C + Cc1cc(Nc2cc(N3CCN(C)CC3)nc(Sc3ccc(NC(=O)C4CC4)cc3)n2)n[nH]1 [Tozasertib] (partner 0.1 µM)
Procedure, shortened: as §1

Obatoclax + AZD7762 = compound: COC1=CC(c2cc3ccccc3[nH]2)=N/C1=C\c1[nH]c(C)cc1C [Obatoclax] + NC(=O)Nc1cc(-c2cccc(F)c2)sc1C(=O)N[C@H]1CCCNC1 [AZD7762] (partner 0.2 µM)
Procedure, shortened: as §1

Cell Line	relative viability ([1]; first compound 0.08 µM)	relative viability ([1]; first compound 0.253 µM)	relative viability ([1]; first compound 0.8 µM)	relative viability ([1]; first compound 2.53 µM)	relative viability ([1]; first compound 8 µM)	relative viability ([2]; first compound 0.08 µM)	relative viability ([2]; first compound 0.253 µM)	relative viability ([2]; first compound 0.8 µM)	relative viability ([2]; first compound 2.53 µM)	relative viability ([2]; first compound 8 µM)	relative viability (Obatoclax + AZD7762; first compound 0.01 µM)	relative viability (Obatoclax + AZD7762; first compound 0.03162 µM)	relative viability (Obatoclax + AZD7762; first compound 0.1 µM)	relative viability (Obatoclax + AZD7762; first compound 1 µM)	relative viability (Obatoclax + AZD7762; first compound 0.3162 µM)
LK-2	0.193	0.221	0.208	0.262	0.203	0.187	0.153	0.165	0.171	0.171	0.456	0.374	0.444	0.568	–
NCI-H23	0.559	0.603	0.439	0.181	0.108	0.389	0.382	0.239	0.212	0.141	0.271	0.313	0.192	0.158	0.219
NCI-H1355	1	1.04	1.07	0.756	0.253	0.536	0.502	0.511	0.173	0.129	0.698	0.709	0.613	0.647	0.735
A-427	0.878	0.878	0.937	0.399	0.0861	0.212	0.136	0.178	0.0979	0.0938	0.746	0.757	0.496	0.441	0.467
NCI-H596	0.984	1.04	0.857	0.554	0.197	0.783	1.01	0.896	0.508	0.244	1.06	1.1	0.773	0.498	0.443
LU99A	0.554	0.549	0.452	0.16	0.13	0.325	0.259	0.262	0.175	0.141	0.379	0.359	–	0.135	0.146
